Laboratory results from ChEMBL document CHEMBL4425118, “Potential Treatment for Neuropsychiatry Disorders with TRPC5 Modulators” (ACS Med Chem Lett, 2016).

Legend:
[1] = target: T1, Short transient receptor potential channel 5 (Homo sapiens, UniProt Q9UL62); assay: Inhibition of TRPC5 (unknown origin) transfected in HEK293/TREx cells assessed as blocking of inward/outward currents after 20 to 48 hrs in presence of LaCl3 by patch clamp assay; format: cell-based
T1 sequence (Q9UL62 whole entry): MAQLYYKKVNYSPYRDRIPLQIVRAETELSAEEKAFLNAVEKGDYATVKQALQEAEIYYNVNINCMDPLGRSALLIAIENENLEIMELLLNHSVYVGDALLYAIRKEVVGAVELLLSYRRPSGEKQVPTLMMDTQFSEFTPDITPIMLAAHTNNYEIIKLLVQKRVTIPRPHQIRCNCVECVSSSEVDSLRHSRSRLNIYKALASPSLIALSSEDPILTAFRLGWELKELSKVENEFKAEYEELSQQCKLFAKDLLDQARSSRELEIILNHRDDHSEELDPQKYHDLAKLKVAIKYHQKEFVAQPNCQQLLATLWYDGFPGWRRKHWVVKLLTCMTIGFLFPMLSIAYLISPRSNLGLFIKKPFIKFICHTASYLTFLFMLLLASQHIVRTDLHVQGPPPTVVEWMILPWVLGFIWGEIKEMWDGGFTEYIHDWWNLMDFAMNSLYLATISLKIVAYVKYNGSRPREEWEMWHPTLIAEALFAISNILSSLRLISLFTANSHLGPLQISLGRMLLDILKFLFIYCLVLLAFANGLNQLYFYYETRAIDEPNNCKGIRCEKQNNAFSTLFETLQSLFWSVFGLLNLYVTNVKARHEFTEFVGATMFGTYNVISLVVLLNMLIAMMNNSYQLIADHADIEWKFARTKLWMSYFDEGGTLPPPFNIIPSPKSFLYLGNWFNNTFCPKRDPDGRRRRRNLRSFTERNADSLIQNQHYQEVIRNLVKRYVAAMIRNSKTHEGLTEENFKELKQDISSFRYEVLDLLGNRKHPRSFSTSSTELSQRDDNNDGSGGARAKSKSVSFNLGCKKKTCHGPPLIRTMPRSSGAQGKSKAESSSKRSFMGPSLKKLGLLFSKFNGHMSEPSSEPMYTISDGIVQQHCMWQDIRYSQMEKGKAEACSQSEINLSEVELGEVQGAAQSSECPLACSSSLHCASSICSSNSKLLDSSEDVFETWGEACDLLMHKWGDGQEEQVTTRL

[2] = target: T1, Short transient receptor potential channel 5; assay: Inhibition of TRPC5 (unknown origin) transfected in HEK293/TREx cells assessed as reduction of rise in intracellular Ca2+ concentration after 60 to 80 mins by Fluo4 cell-based fluorescence assay

SMILES | IC50 [1] [nM] | IC50 [2] [nM]
Cn1c(=O)n(CCCO)c(=O)c2c(Cc3ccccc3)c(-c3cccc(OC(F)(F)F)c3)ccc21 | 5.3 | 
CC(C)Oc1ccc2c(c1Cc1ccc(F)cc1)c(=O)n(CCCO)c(=O)n2C | 9 | 2.64
Cn1c(=O)n(CCCO)c(=O)c2c(Cc3ccccc3)c(Oc3cccc(OC(F)(F)F)c3)ccc21 | < 1 | 2.69

Further lines, with some results ahead:

IC50 [1] [nM] | SMILES | IC50 [2] [nM]
< 1 | CCCCOc1ccc2c(c1Cc1ccc(F)cc1)c(=O)n(CCCO)c(=O)n2C | < 1
23.3 | COc1ccc2c(c1Cc1ccccc1)c(=O)n(CCCO)c(=O)n2C | 
8.37 | COc1ccc2c(c1Cc1ccc(F)cc1)c(=O)n(CCCO)c(=O)n2C | > 100
